Measurements published in patent US20100292231A1, “Indazole Compounds for Treating Inflammatory Disorders, Demyelinating Disorders and Cancers” (priority 2007, published 2010).

Tests used:
Assay in all cases: SelectScreen kinase specificity survey
Type in all cases: biochemical
Conditions in all cases: estimated, abridged dose response curve, read-out: Kinase inhibitory activity EC50
[1] = biological target: T1, CAMK4 (CaMKIV) (Homo sapiens, UniProt Q16566)
T1 construct: purchased Invitrogen, Inc. (SelectScreen platform)
Description: (§1) Testing of the compounds described in this invention was carried out using the SelectScreen™ platform from Invitrogen, Inc. (Carlsbad. Calif., USA) and the details of its performance are readily viewed via the web by linking to: http://www.invitrogen.com/downloads/SelectScrn_Brochure.pdf.
(§2) Briefly, the approach is based on treating each specific kinase with a unique substrate and optical reporter system in the presence of ATP at 100 micromolar. In controls, the substrate is phosphorylated and a baseline optimal response is recorded.
(§3) The compounds were then re-tested by adding graded amounts of putative inhibitor which were added in 5 separate increments to generate a dose response curve. The latter is obtained by fitting to a 4 parameter Hill equation, a sigmoid saturation equation.
(§4) The same assay system described in Example 2 can be applied in the determination of kinase specificity. It is well understood by medicinal chemists in the development of kinase inhibitors that the resulting molecules often lack specificity. Not only are homologous kinases inhibited by the same class of compounds, but also non-homologous kinases can be affected by allosteric, induced, activated vs inactivated conformation, and protein folding interactions with the putative inhibitor, which otherwise had been designed to be specific. These off target effects are difficult to predict and can only be ruled in or out by empirically surveying a large set of kinases. It is also understood that changes to scaffolds and variation in their chemical decorations may influence the extent of promiscuity in the patterns of kinase inhibition across kinase classes.
(§5) The following experiment was conducted to address this issue. The indazole compound (IV), described in Example 2 and representative of the new genus was tested along with Symadex against a panel of 230 kinases representative of all known kinases classes. Included in the survey were the Flt3, its mutant, and close relatives in the Class III receptor tyrosine kinase class, together with serine-threonine kinases and atypical kinases many of which share no homology of active site with Flt3 as shown, for example, in the respective “genecard” for each kinase and available for inspection at on the web at http://www.genecards.org/.
(§6) Table 3 lists the estimated EC50 values from an abridged dose response curve for Symadex (C-1311) and CF-123. The kinases are listed alphabetically by Group and Family.

[2] = biological target: T2, MST4 (Homo sapiens, UniProt Q9P289)
T2 construct: purchased Invitrogen (SelectScreen platform)
Description: as §1, §2, §3, §4, §5, §6

[3] = biological target: T3, JAK1 (Homo sapiens, UniProt P23458)
T3 construct: purchased Invitrogen (SelectScreen platform)
Description: as §1, §2, §3, §4, §5, §6

[4] = biological target: T4, KIT T670I (Homo sapiens, UniProt P10721, T670I)
T4 construct: purchased Invitrogen (SelectScreen platform)
Description: as §1, §2, §3, §4, §5, §6

[5] = biological target: T5, ABL1 T315I (Homo sapiens, UniProt P00519, T315I)
T5 construct: purchased Invitrogen (SelectScreen platform)
Description: as §1, §2, §3, §4, §5, §6

[6] = biological target: T6, INSR (Homo sapiens, UniProt P06213)
T6 construct: purchased Invitrogen (SelectScreen platform)
Description: as §1, §2, §3, §4, §5, §6

[7] = biological target: T7, STK4 (MST1) (Homo sapiens, UniProt Q13043)
T7 construct: purchased Invitrogen (SelectScreen platform)
Description: as §1, §2, §3, §4, §5, §6

[8] = biological target: T8, IRAK4 (Homo sapiens, UniProt Q9NWZ3)
T8 construct: purchased Invitrogen, Inc. (SelectScreen platform)
Description: as §1, §2, §3, §4, §5, §6

[9] = biological target: T9, CDC42 BPB (MRCKB) (Homo sapiens, UniProt Q9Y5S2)
T9 construct: purchased Invitrogen (SelectScreen platform)
Description: as §1, §2, §3, §4, §5, §6

[10] = biological target: T10, CSNK1G3 (CK1 gamma 3) (Homo sapiens, UniProt Q9Y6M4)
T10 construct: purchased Invitrogen (SelectScreen platform)
Description: as §1, §2, §3, §4, §5, §6

[11] = biological target: T11, MAP2K2 (MEK2) (Homo sapiens, UniProt P36507)
T11 construct: purchased Invitrogen (SelectScreen platform)
Description: as §1, §2, §3, §4, §5, §6

[12] = biological target: T12, PRKCD (PKC delta) (Homo sapiens, UniProt Q05655)
T12 construct: purchased Invitrogen, Inc. (SelectScreen platform)
Description: as §1, §2, §3, §4, §5, §6

[13] = biological target: T13, MAP4K2 (GCK) (Homo sapiens, UniProt Q12851)
T13 construct: purchased Invitrogen, Inc. (SelectScreen service)
Description: as §1, §2, §3, §4, §5, §6

[14] = biological target: T14, PLK3 (Homo sapiens, UniProt Q9H4B4)
T14 construct: purchased Invitrogen, Inc. (SelectScreen service)
Description: as §1, §2, §3, §4, §5, §6

[15] = biological target: T15, NEK1 (Homo sapiens, UniProt Q96PY6)
T15 construct: purchased Invitrogen, Inc. (SelectScreen service)
Description: as §1, §2, §3, §4, §5, §6

[16] = biological target: T16, EPHB2 (Homo sapiens, UniProt P29323)
T16 construct: purchased Invitrogen (SelectScreen service)
Description: as §1, §2, §3, §4, §5, §6

[17] = biological target: T17, PRKCH (PKC eta) (Homo sapiens, UniProt P24723)
T17 construct: purchased Invitrogen, Inc. (SelectScreen platform)
Description: as §1, §2, §3, §4, §5, §6

[18] = biological target: T18, JAK2 (Homo sapiens, UniProt O60674)
T18 construct: purchased Invitrogen (SelectScreen platform)
Description: as §1, §2, §3, §4, §5, §6

[19] = biological target: T19, AURKB (Aurora B) (Homo sapiens, UniProt Q96GD4)
T19 construct: purchased Invitrogen, Inc. (SelectScreen service)
Description: as §1, §2, §3, §4, §5, §6

[20] = biological target: T20, FGFR4 (Homo sapiens, UniProt P22455)
T20 construct: purchased Invitrogen (SelectScreen platform)
Description: as §1, §2, §3, §4, §5, §6

[21] = biological target: T21, ALK (Homo sapiens, UniProt Q9UM73)
T21 construct: purchased Invitrogen (SelectScreen platform)
Description: as §1, §2, §3, §4, §5, §6

[22] = biological target: T22, FGFR3 (Homo sapiens, UniProt P22607)
T22 construct: purchased Invitrogen (SelectScreen platform)
Description: as §1, §2, §3, §4, §5, §6

[23] = biological target: T23, STK3 (MST2) (Homo sapiens, UniProt Q13188)
T23 construct: purchased Invitrogen (SelectScreen platform)
Description: as §1, §2, §3, §4, §5, §6

[24] = biological target: T24, CLK2 (Homo sapiens, UniProt P49760)
T24 construct: purchased Invitrogen (SelectScreen platform)
Description: as §1, §2, §3, §4, §5, §6

[25] = biological target: T25, MAPKAPK2 (Homo sapiens, UniProt P49137)
T25 construct: purchased Invitrogen, Inc. (SelectScreen platform)
Description: as §1, §2, §3, §4, §5, §6

[26] = biological target: T26, PAK7 (KIAA1264, PAK5) (Homo sapiens, UniProt Q9P286)
T26 construct: purchased Invitrogen (SelectScreen platform)
Description: as §1, §2, §3, §4, §5, §6

[27] = biological target: T27, MAPK11 (p38 beta) (Homo sapiens, UniProt Q15759)
T27 construct: purchased Invitrogen (SelectScreen platform)
Description: as §1, §2, §3, §4, §5, §6

[28] = biological target: T28, KDR (VEGFR2) (Homo sapiens, UniProt P35968)
T28 construct: purchased Invitrogen, Inc. (SelectScreen platform)
Description: as §1, §2, §3, §4, §5, §6

T2 sequence (Q9P289 whole entry): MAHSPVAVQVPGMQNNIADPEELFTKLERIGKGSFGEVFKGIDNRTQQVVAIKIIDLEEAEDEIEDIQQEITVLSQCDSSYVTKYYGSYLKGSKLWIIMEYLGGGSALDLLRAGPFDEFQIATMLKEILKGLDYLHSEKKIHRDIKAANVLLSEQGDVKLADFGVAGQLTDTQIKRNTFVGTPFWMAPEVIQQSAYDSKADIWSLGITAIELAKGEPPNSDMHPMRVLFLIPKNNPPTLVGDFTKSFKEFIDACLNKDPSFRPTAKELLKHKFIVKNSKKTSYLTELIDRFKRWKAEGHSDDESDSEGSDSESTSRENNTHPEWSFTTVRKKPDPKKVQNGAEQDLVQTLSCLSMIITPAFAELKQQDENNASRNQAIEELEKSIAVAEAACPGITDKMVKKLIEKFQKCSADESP
T3 sequence (P23458 whole entry): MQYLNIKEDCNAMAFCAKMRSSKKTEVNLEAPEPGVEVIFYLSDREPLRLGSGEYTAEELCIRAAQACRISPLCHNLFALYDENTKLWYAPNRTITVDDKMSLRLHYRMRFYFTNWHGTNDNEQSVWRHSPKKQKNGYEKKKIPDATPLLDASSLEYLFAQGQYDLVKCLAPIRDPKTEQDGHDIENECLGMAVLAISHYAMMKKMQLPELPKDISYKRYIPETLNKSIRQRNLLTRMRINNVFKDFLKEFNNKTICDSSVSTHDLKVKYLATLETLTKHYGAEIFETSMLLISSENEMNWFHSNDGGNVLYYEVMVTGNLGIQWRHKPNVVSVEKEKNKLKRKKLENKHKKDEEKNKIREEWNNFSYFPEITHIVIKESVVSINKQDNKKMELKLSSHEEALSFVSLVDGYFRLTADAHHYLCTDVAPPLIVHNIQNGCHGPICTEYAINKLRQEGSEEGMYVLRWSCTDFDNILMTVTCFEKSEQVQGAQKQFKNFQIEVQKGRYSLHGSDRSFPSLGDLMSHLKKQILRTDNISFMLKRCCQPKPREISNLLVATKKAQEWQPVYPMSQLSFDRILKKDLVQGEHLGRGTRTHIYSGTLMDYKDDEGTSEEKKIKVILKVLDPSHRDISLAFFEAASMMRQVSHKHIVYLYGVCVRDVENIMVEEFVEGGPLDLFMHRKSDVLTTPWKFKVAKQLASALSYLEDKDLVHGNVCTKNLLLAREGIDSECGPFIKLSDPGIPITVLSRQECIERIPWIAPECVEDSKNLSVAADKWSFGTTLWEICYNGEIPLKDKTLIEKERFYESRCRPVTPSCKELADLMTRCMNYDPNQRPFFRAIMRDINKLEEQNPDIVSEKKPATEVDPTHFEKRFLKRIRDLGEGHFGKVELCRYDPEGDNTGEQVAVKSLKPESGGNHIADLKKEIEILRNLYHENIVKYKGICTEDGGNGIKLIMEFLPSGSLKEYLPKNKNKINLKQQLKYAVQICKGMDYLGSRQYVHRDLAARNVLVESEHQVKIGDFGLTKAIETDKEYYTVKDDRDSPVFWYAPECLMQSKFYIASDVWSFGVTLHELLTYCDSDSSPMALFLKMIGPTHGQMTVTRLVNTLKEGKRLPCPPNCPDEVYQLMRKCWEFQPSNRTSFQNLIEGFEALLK
T28 sequence (P35968 20-1356): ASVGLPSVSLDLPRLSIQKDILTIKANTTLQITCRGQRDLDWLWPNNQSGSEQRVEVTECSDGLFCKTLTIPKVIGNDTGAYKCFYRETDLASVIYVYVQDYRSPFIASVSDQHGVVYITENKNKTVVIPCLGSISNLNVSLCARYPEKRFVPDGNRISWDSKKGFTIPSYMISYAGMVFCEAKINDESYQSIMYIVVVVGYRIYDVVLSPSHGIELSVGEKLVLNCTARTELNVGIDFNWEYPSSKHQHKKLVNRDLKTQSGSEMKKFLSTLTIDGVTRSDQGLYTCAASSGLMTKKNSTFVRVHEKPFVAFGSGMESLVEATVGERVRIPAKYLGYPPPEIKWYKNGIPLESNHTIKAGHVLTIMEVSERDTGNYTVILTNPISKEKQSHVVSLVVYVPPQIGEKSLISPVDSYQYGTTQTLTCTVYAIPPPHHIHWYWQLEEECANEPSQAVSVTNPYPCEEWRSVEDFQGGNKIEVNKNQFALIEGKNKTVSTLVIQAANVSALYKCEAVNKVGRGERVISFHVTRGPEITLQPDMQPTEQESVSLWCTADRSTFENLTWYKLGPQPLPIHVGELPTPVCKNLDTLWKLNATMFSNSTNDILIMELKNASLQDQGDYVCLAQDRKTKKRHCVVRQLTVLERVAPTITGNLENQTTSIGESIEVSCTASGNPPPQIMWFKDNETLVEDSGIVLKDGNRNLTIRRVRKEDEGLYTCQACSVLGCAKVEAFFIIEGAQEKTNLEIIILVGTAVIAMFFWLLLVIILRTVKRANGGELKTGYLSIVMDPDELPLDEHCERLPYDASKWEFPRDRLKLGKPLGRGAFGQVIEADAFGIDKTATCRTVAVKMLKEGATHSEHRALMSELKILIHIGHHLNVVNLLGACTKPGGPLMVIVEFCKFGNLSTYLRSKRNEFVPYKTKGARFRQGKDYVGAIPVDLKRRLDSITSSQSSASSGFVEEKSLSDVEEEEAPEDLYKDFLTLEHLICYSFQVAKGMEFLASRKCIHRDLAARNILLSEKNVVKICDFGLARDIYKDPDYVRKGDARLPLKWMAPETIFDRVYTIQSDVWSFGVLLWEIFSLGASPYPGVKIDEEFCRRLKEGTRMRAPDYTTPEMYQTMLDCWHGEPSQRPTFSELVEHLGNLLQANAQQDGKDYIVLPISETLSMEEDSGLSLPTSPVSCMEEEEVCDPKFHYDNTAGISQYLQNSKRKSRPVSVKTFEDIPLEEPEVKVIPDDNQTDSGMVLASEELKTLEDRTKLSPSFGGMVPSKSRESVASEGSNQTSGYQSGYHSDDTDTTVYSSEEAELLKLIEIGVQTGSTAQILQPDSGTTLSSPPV
T13 sequence (Q12851 whole entry): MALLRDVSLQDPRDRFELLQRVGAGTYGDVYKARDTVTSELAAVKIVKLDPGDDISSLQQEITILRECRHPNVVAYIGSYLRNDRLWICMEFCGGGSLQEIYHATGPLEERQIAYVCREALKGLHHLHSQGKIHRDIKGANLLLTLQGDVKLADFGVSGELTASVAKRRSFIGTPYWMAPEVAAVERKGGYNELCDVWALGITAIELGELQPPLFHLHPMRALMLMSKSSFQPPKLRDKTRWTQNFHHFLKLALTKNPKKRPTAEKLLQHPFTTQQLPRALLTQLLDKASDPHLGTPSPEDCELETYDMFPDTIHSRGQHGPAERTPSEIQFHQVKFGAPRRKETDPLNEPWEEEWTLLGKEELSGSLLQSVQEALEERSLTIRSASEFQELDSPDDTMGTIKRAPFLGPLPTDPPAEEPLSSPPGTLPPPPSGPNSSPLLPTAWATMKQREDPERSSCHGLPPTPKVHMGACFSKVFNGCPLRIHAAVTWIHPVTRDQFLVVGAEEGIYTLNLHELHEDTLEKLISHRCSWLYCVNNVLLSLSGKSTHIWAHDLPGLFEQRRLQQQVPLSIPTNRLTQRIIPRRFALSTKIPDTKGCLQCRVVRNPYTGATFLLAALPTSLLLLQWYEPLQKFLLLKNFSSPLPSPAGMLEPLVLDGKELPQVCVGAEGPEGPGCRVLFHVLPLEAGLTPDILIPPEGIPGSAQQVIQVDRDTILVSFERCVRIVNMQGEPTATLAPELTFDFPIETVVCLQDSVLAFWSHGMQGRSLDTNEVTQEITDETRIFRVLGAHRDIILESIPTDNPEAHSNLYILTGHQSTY
T27 sequence (Q15759 whole entry): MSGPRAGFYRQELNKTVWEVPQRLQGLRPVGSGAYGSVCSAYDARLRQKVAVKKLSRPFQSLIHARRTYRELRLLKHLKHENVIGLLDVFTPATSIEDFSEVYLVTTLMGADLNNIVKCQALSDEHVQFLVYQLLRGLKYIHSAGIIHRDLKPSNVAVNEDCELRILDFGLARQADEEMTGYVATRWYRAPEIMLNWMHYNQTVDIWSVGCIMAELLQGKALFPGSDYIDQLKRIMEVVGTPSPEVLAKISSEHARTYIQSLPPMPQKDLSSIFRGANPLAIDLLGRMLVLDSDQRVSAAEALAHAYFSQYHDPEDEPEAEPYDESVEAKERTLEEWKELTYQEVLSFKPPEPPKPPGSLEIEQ
T11 sequence (P36507 whole entry): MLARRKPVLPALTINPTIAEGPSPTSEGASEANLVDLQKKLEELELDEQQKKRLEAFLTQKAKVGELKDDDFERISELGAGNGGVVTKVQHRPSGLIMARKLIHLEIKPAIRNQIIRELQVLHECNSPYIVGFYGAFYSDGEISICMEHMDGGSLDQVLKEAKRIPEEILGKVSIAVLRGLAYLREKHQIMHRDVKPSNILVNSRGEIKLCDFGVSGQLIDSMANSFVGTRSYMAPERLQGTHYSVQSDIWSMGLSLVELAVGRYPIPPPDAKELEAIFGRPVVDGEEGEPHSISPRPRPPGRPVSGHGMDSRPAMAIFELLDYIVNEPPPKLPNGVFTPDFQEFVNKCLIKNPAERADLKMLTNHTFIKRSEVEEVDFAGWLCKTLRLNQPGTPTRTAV
T24 sequence (P49760 whole entry): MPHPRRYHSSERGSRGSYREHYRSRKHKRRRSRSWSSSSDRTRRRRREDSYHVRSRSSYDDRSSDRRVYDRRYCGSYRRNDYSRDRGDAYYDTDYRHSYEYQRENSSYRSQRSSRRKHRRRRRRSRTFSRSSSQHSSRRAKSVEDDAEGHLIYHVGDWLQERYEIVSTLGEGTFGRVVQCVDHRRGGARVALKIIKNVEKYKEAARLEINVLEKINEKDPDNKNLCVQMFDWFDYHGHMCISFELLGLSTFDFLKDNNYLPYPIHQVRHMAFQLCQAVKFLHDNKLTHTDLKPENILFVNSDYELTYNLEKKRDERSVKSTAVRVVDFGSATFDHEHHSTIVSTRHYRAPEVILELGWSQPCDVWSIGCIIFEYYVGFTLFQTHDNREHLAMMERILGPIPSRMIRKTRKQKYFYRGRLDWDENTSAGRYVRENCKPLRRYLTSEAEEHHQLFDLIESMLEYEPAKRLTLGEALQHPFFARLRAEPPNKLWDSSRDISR

Row | Compound | EC50 [1] [µM] | EC50 [2] [µM] | EC50 [3] [µM] | EC50 [4] [µM] | EC50 [5] [µM] | EC50 [6] [µM] | EC50 [7] [µM] | EC50 [8] [µM] | EC50 [9] [µM] | EC50 [10] [µM] | EC50 [11] [µM] | EC50 [12] [µM] | EC50 [13] [µM] | EC50 [14] [µM] | EC50 [15] [µM] | EC50 [16] [µM] | EC50 [17] [µM] | EC50 [18] [µM] | EC50 [19] [µM] | EC50 [20] [µM] | also measured
1 | CCN(CC)CCNc1ccc2ncn3c4ccc(O)cc4c(=O)c1c23 [Symadex, 5-(2-(diethylamino)ethylamino)-8-hydroxy-6H-imidazo[4,5,1-de]acridin-6-one, reference compound] | > 5 | 1.58 | > 5 | > 5 | > 5 | > 5 | > 5 | 0.847 | > 5 | > 5 | > 5 | > 5 | 4.93 | > 5 | 3.38 | > 5 | > 5 | > 5 | > 5 | > 5 | EC50 [21]: 2.48 µM; EC50 [22]: > 5 µM; EC50 [23]: > 5 µM; EC50 [24]: 0.315 µM; EC50 [25]: > 5 µM; EC50 [26]: > 5 µM; EC50 [27]: > 5 µM; EC50 [28]: 1.6 µM
2 | CN(C)CCCNc1ccc2ncn3c4ccc5[nH]ncc5c4c(=O)c1c23 [Compound (IV)] | > 5 | > 5 | > 5 | > 5 | > 5 | 2.4 | 2.17 | 3.32 | 3.63 | > 5 | > 5 | > 5 | > 5 | > 5 | > 5 | > 5 | 2.13 | > 5 | > 5 | > 5 | EC50 [21]: 4.63 µM; EC50 [22]: 3.21 µM; EC50 [23]: > 5 µM; EC50 [24]: 0.055 µM; EC50 [25]: > 5 µM; EC50 [26]: > 5 µM; EC50 [27]: > 5 µM; EC50 [28]: 0.83 µM
